Source: US4692443A, “3-bicyclicpyridinium-methyl cephalosporins” (Eli Lilly and Company, priority 1984, dated 1987)
Converted amounts (≈) assume the structure as drawn. Where two headings read alike, the source gives them in different places.

What was measured:
Type in all cases: cell-based
Staph. epi 222 = test: standard in vitro agar dilution assay (MIC); details: Staph. epi strain 222
Staph. aureus V41 = test: standard in vitro agar dilution assay (MIC); details: Staphylococcus aureus
Staph. aureus X1.1 = test: standard in vitro agar dilution assay (MIC); details: Staphylococcus aureus; Staph. aureus strain X1.1; read-out: Agar Dilution MIC
E. coli N10 = test: standard in vitro agar dilution assay (MIC); details: Escherichia coli
Pseudomonas X239 = test: standard in vitro agar dilution assay (MIC); details: Pseudomonas strain X239
Pseudomonas X528 = test: standard in vitro agar dilution assay (MIC); details: Pseudomonas strain X528
Excerpt: The antibacterial activity of several representative compounds of the invention has been evaluated in standard in vitro agar dilution assays. The following Table presents typical minimum inhibitory concentrations (MIC's) in μg /ml for exemplary compounds when evaluated against typical Gram + and Gram - microorganism.

Staph. aureus S13E = test: microbe, parasite or virus in culture; details: Staphylococcus aureus, read-out: Agar Dilution MIC
Klebsiella KAE = test: standard in vitro agar dilution assay (MIC); details: read-out: Agar Dilution MIC
Staph. epi EPI1 = test: standard in vitro agar dilution assay (MIC); details: Staph. epi strain EPI1
Strep. D 9960 = test: standard in vitro agar dilution assay (MIC); details: Strep. D strain 9960
[1] = test system: Enterobacter aerogenes C32; test: standard in vitro agar dilution assay (MIC); details: Klebsiella aerogenes
Strep. D X66 = test: standard in vitro agar dilution assay (MIC); details: Strep. D strain X66
Staph. aureus X400 = test: standard in vitro agar dilution assay (MIC); details: Staphylococcus aureus; Staph. aureus strain X400
Klebsiella X68 = test: standard in vitro agar dilution assay (MIC); details: Klebsiella strain X68; read-out: Agar Dilution MIC
Serratia X99 = test: standard in vitro agar dilution assay (MIC); details: Serratia strain X99; read-out: Agar Dilution MIC
H. influ. 76 = test: standard in vitro agar dilution assay (MIC); details: H. influ. strain 76; read-out: Agar Dilution MIC
Salmonella X514 = test: standard in vitro agar dilution assay (MIC)
H. influ. C.L. = test: standard in vitro agar dilution assay (MIC); details: H. influ. strain C.L.; read-out: Agar Dilution MIC
E. coli EC14 = test: standard in vitro agar dilution assay (MIC); details: Escherichia coli; E. coli strain EC14; read-out: Agar Dilution MIC
E. coli TEM = test: standard in vitro agar dilution assay (MIC); details: Escherichia coli; E. coli strain TEM; read-out: Agar Dilution MIC
Strep. PN PARK = test: standard in vitro agar dilution assay (MIC); details: Strep. PN strain PARK
Klebsiella X26 = test: standard in vitro agar dilution assay (MIC); details: Klebsiella strain X26; read-out: Agar Dilution MIC
Strep. A C203 = test: standard in vitro agar dilution assay (MIC); details: Strep. A strain C203
Enterobacter cloacae EB5 = test: standard in vitro agar dilution assay (MIC); details: Enterobacter cloacae strain EB5; read-out: Agar Dilution MIC
[2] = Staph. aureus strain V41, read-out: Agar Dilution MIC
[3] = E. coli strain N10, read-out: Agar Dilution MIC
[4] = Salmonella strain X514, read-out: Agar Dilution MIC
[5] = Enterobacter aerogenes strain C32, read-out: Agar Dilution MIC

SMILES | MIC (Staph. epi 222) [µg/mL] | MIC (Staph. aureus X1.1) [µg/mL] | MIC (Pseudomonas X239) [µg/mL] | MIC (Pseudomonas X528) [µg/mL] | MIC (Staph. aureus S13E) [µg/mL] | MIC (Staph. epi EPI1) [µg/mL] | MIC (Strep. D 9960) [µg/mL] | MIC (Strep. D X66) [µg/mL] | MIC (Staph. aureus X400) [µg/mL] | MIC (Staph. aureus V41; [2]) [µg/mL] | MIC (Klebsiella X68) [µg/mL] | MIC (E. coli N10; [3]) [µg/mL] | MIC (H. influ. 76) [µg/mL] | MIC (E. coli EC14) [µg/mL] | MIC (E. coli TEM) [µg/mL] | MIC (Klebsiella KAE; Klebsiella strain KAE) [µg/mL] | MIC [1, 5] [µg/mL] | MIC (Strep. PN PARK) [µg/mL] | MIC (Klebsiella X26) [µg/mL] | MIC (Strep. A C203) [µg/mL] | other results
CC(C)(O/N=C(\C(=O)N[C@@H]1C(=O)N2C(C(=O)[O-])=C(C[n+]3ccccc3)CS[C@H]12)c1csc(N)n1)C(=O)O [Ceftazidime, ceftazidime, reference compound] | 16 (≈ 29.3 µM) | 8 (≈ 14.6 µM) | 2 (≈ 3.66 µM) | 2 (≈ 3.66 µM) | 32 (≈ 58.5 µM) | 16 (≈ 29.3 µM) | 16 (≈ 29.3 µM) | > 128 | 128 (≈ 234 µM) | – | – | – | – | – | – | – | – | – | – | – | MIC (Staph. aureus V41; V41, read-out: Agar Dilution MIC): 32 µg/mL (≈ 58.5 µM); MIC (E. coli N10; N10, read-out: Agar Dilution MIC): 0.25 µg/mL (≈ 0.457 µM); MIC (Klebsiella KAE; Klebsiella): 0.5 µg/mL (≈ 0.915 µM); MIC ([1]; C32, read-out: Agar Dilution MIC): 0.25 µg/mL (≈ 0.457 µM)
CO/N=C(\C(=O)NC1C(=O)N2C(C(=O)[O-])=C(C[n+]3ccc4[nH]cnc4c3)CSC12)c1csc(N)n1 (stereo not drawn) [Example 2, syn-7-[2-(2-Aminotiazol-4-yl)-2-methoxyiminoacetamido]-3-(1H-imidazolo[4,5-c]pyridinium-5-ylmethyl)-3-cephem-4-carboxylate] | 1 (≈ 1.94 µM) | 1 (≈ 1.94 µM) | 2 (≈ 3.89 µM) | 1 (≈ 1.94 µM) | 8 (≈ 15.5 µM) | 4 (≈ 7.77 µM) | 2 (≈ 3.89 µM) | – | 64 (≈ 124 µM) | 8 (≈ 15.5 µM) | < 0.008 | 0.015 (≈ 0.0292 µM) | 0.015 (≈ 0.0292 µM) | < 0.008 | < 0.008 | 4 (≈ 7.77 µM) | 0.03 (≈ 0.0583 µM) | < 0.008 | < 0.008 | < 0.008 | MIC (Serratia X99): 0.015 µg/mL (≈ 0.0292 µM); MIC (Salmonella X514; [4]): < 0.008 µg/mL; MIC (H. influ. C.L.): 0.015 µg/mL (≈ 0.0292 µM)
CO/N=C(\C(=O)NC1C(=O)N2C(C(=O)[O-])=C(C[n+]3ccc4ncn(C)c4c3)CSC12)c1csc(N)n1 (stereo not drawn) [Example 3, syn-7-[2-(2-Aminothiazol-4-yl)-2-methoxyiminoacetamido]-3-(3-methyl-3H-imidazolo[4,5-c]pyridinium-5-ylmethyl)-3-cephem-4-carboxylate] | 1 (≈ 1.89 µM) | 1 (≈ 1.89 µM) | 2 (≈ 3.78 µM) | 1 (≈ 1.89 µM) | 4 (≈ 7.57 µM) | 2 (≈ 3.78 µM) | 4 (≈ 7.57 µM) | > 128 | 64 (≈ 121 µM) | 4 (≈ 7.57 µM) | 0.03 (≈ 0.0568 µM) | – | – | < 0.008 | < 0.008 | 4 (≈ 7.57 µM) | – | < 0.008 | < 0.008 | < 0.008 | MIC (Salmonella X514; [4]): < 0.008 µg/mL
CO/N=C(\C(=O)NC1C(=O)N2C(C(=O)[O-])=C(C[n+]3ccc4c(c3)ncn4C)CSC12)c1csc(N)n1 (stereo not drawn) [Example 4, syn-7-[2-(2-aminothiazol-4-yl)-2-methoxyiminoacetamido]-3-(1-methyl-1H-imidazolo[4,5-c]pyridinium-5-ylmethyl)-3-cephem-4-carboxylate] | 1 (≈ 1.89 µM) | 1 (≈ 1.89 µM) | 2 (≈ 3.78 µM) | 1 (≈ 1.89 µM) | 8 (≈ 15.1 µM) | 2 (≈ 3.78 µM) | 2 (≈ 3.78 µM) | > 128 | 64 (≈ 121 µM) | 8 (≈ 15.1 µM) | 0.015 (≈ 0.0284 µM) | 0.03 (≈ 0.0568 µM) | – | < 0.008 | 0.015 (≈ 0.0284 µM) | 4 (≈ 7.57 µM) | 0.03 (≈ 0.0568 µM) | 0.15 (≈ 0.284 µM) | 0.015 (≈ 0.0284 µM) | 0.15 (≈ 0.284 µM) | MIC (Salmonella X514; Salmonella, X514, read-out: Agar Dilution MIC): 0.05 µg/mL (≈ 0.0946 µM); MIC (Enterobacter cloacae EB5): 0.03 µg/mL (≈ 0.0568 µM)
CO/N=C(\C(=O)NC1C(=O)N2C(C(=O)[O-])=C(C[n+]3ccc4[nH]c(C)nc4c3)CSC12)c1csc(N)n1 (stereo not drawn) [Example 5, syn-7-[2-(2-aminothiazol-4-yl)-2-methoxyiminoacetamido]-3-(2-methyl-1H-imidazolo[4,5-c]pyridinium-5-ylmethyl)-3-cephem-4-carboxylate] | 1 (≈ 1.89 µM) | 2 (≈ 3.78 µM) | 2 (≈ 3.78 µM) | 2 (≈ 3.78 µM) | 8 (≈ 15.1 µM) | 4 (≈ 7.57 µM) | 8 (≈ 15.1 µM) | > 128 | 32 (≈ 60.5 µM) | 8 (≈ 15.1 µM) | 0.015 (≈ 0.0284 µM) | 0.03 (≈ 0.0568 µM) | 0.015 (≈ 0.0284 µM) | < 0.008 | < 0.008 | 2 (≈ 3.78 µM) | 0.03 (≈ 0.0568 µM) | < 0.008 | < 0.008 | < 0.008 | MIC (Serratia X99): 0.03 µg/mL (≈ 0.0568 µM); MIC (Salmonella X514; [4]): < 0.008 µg/mL; MIC (H. influ. C.L.): 0.015 µg/mL (≈ 0.0284 µM)
CO/N=C(\C(=O)NC1C(=O)N2C(C(=O)[O-])=C(C[n+]3ccc4c(c3)nc(C)n4C)CSC12)c1csc(N)n1 (stereo not drawn) [Example 6, syn-7-[2-(2-aminothiazol-4-yl)-2-methoxyiminoacetamido]-3-(1,2-dimethyl-1H-imidazolo[4,5-c]pyridinium-5-ylmethyl)-3-cephem-4-carboxylate] | 1 (≈ 1.84 µM) | 2 (≈ 3.69 µM) | 4 (≈ 7.37 µM) | 4 (≈ 7.37 µM) | 8 (≈ 14.7 µM) | 2 (≈ 3.69 µM) | 4 (≈ 7.37 µM) | > 128 | 32 (≈ 59 µM) | 16 (≈ 29.5 µM) | 0.03 (≈ 0.0553 µM) | 0.03 (≈ 0.0553 µM) | – | < 0.008 | < 0.008 | 2 (≈ 3.69 µM) | 0.03 (≈ 0.0553 µM) | < 0.008 | < 0.008 | < 0.008 | MIC (Salmonella X514; [4]): 0.03 µg/mL (≈ 0.0553 µM)
CO/N=C(\C(=O)NC1C(=O)N2C(C(=O)[O-])=C(C[n+]3ccc4nc(C)n(C)c4c3)CSC12)c1csc(N)n1 (stereo not drawn) [Example 7, syn-7-[2-(2-aminothiazol-4-yl)-2-methoxyiminoacetamido]-3-(2,3-dimethyl-3H-imidazolo[4,5-c]pyridinium-5-ylmethyl)-3-cephem-4-carboxylate] | 2 (≈ 3.69 µM) | 2 (≈ 3.69 µM) | – | – | – | 4 (≈ 7.37 µM) | 4 (≈ 7.37 µM) | > 128 | 128 (≈ 236 µM) | – | 0.03 (≈ 0.0553 µM) | 0.03 (≈ 0.0553 µM) | 0.03 (≈ 0.0553 µM) | 0.015 (≈ 0.0276 µM) | 0.015 (≈ 0.0276 µM) | 2 (≈ 3.69 µM) | – | – | 0.015 (≈ 0.0276 µM) | 0.015 (≈ 0.0276 µM) | –
CO/N=C(\C(=O)NC1C(=O)N2C(C(=O)[O-])=C(C[n+]3ccc4scnc4c3)CSC12)c1csc(N)n1 (stereo not drawn) [Example 12, syn-7-[2-(2-aminothiazol-4-yl)-2-methoxyiminoacetamido]-3-(thiazolo[4,5-c]pyridinium-5-ylmethyl)-3-cephem-4-carboxylate] | – | 1 (≈ 1.88 µM) | 2 (≈ 3.76 µM) | 1 (≈ 1.88 µM) | 8 (≈ 15 µM) | 2 (≈ 3.76 µM) | 4 (≈ 7.52 µM) | 128 (≈ 241 µM) | 2 (≈ 3.76 µM) | 2 (≈ 3.76 µM) | 0.03 (≈ 0.0564 µM) | 0.03 (≈ 0.0564 µM) | – | 0.015 (≈ 0.0282 µM) | – | 4 (≈ 7.52 µM) | 0.03 (≈ 0.0564 µM) | 0.015 (≈ 0.0282 µM) | 0.015 (≈ 0.0282 µM) | 0.015 (≈ 0.0282 µM) | MIC (Salmonella X514; [4]): 0.03 µg/mL (≈ 0.0564 µM)
CO/N=C(\C(=O)NC1C(=O)N2C(C(=O)[O-])=C(C[n+]3ccc4sc(C)nc4c3)CSC12)c1csc(N)n1 (stereo not drawn) [Example 13] | 1 (≈ 1.83 µM) | 1 (≈ 1.83 µM) | 8 (≈ 14.7 µM) | 2 (≈ 3.67 µM) | 8 (≈ 14.7 µM) | 2 (≈ 3.67 µM) | 8 (≈ 14.7 µM) | > 128 | 32 (≈ 58.6 µM) | 8 (≈ 14.7 µM) | 0.03 (≈ 0.055 µM) | 0.03 (≈ 0.055 µM) | 0.03 (≈ 0.055 µM) | 0.015 (≈ 0.0275 µM) | 0.015 (≈ 0.0275 µM) | 2 (≈ 3.67 µM) | 0.03 (≈ 0.055 µM) | < 0.008 | 0.015 (≈ 0.0275 µM) | 0.015 (≈ 0.0275 µM) | MIC (H. influ. C.L.): 0.03 µg/mL (≈ 0.055 µM)
CCc1nc2c[n+](CC3=C(C(=O)[O-])N4C(=O)C(NC(=O)/C(=N\OC)c5csc(N)n5)C4SC3)ccc2s1 (stereo not drawn) [Example 14, syn-7-[2-(2-aminothiazol-4-yl)-2-methoxyiminoacetamido]-3-(2-ethylthiazolo[4,5-c]pyridinium-5-ylmethyl)-3-cephem-4-carboxylate] | 1 (≈ 1.79 µM) | 1 (≈ 1.79 µM) | 4 (≈ 7.15 µM) | 4 (≈ 7.15 µM) | 4 (≈ 7.15 µM) | 2 (≈ 3.57 µM) | 4 (≈ 7.15 µM) | > 128 | 32 (≈ 57.2 µM) | 4 (≈ 7.15 µM) | 0.03 (≈ 0.0536 µM) | 0.03 (≈ 0.0536 µM) | 0.015 (≈ 0.0268 µM) | 0.015 (≈ 0.0268 µM) | 0.015 (≈ 0.0268 µM) | 2 (≈ 3.57 µM) | – | < 0.008 | < 0.008 | < 0.008 | –
